{"source": "PubChem BioAssay AID1919013", "about": "(Molecular Pharmacology Branch, DTP, NCI, 2023);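 also: luminescence taken as a proxy for viable cell amount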;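 as to viability, T/C: percent of DMSO vehicle control where 100% means growth equal to vehicle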", "tested_on": "LG0703-F498-PDC complex spheroid growth", "assay": "Anticancer human tumor LG0703-F498-PDC patient-derived lung adenocarcinoma cell line growth inhibition [AhR]", "details": "for IC50: curve of first compound; for viability, T/C: stronger effect = lower value", "text": "Multicellular complex tumor spheroid response to aryl hydrocarbon receptor antagonists in combination with a variety of drugs and investigational agents in selected tumor cell lines\nThe current study was undertaken to assess response to aryl hydrocarbon receptor antagonists in combination with standard-of-care drugs and investigational agents in solid tumor complex spheroid models. Complex spheroids include a stromal component modeled by human endothelial cells (HUVEC) and fibroblasts modeled by human mesenchymal stem cells (MSCs). The concentration ranges selected for each drug and investigational agent were based upon clinically achievable concentrations if the clinical Cmax of the agent was known.\nCompounds. The drugs and investigational agents: BAY 2416964 (NSC825713), GNF351 (NSC835774), CH-223191 (NSC835775), CPI-455 (NSC825282), aza-TdCyd (NSC777586), decitabine (NSC127716), belinostat (NSC758774), entinostat (NSC756642), pevonedistat (NSC761192), tazemetostat (NSC777109), talazoparib (NSC765396), olaparib (NSC753686), selinexor (NSC780203), nedisertib (M3814, NSC802822), bortezomib (NSC756655), venetoclax (NSC766270), doxorubicin (NSC123127), elimusertib (BAY189344, NSC800525), ceralasertib (AZD6738, NSC777638), TAK-243 (NSC785004), alisertib (NSC759677), etoposide (NSC141540), topotecan (NSC609699), eribulin (NSC707389), gemcitabine (NSC613327), carboplatin (NSC241240), cisplatin (NSC119875), and SN-38 (NSC673596) were obtained from the National Cancer Institute (NCI) Developmental Therapeutics Program Chemical Repository (32). The FDA-approved anticancer drug set is available from the Developmental Therapeutics Program at https://dtp.cancer.gov/organization/dscb/obtaining/available plates.htm. […] The stock solutions were prepared in dimethyl sulfoxide (DMSO, Sigma-Aldrich, St. Louis, MO, cat. D2650), except for the platinum compounds which were prepared in saline (Quality Biological, Gaithersburg, MD, cat. 114-055-101), at 800-fold the tested concentration and stored at -70 degrees C prior to their use. All drugs and investigational agents were tested over a range starting from a high concentration at or near the clinical Cmax and decreasing in half-log increments. If the clinical Cmax for an agent had not been determined, the highest concentration tested was 10 microM (Table 1).\nCell Culture. All cells were maintained in an incubator at 37 degrees C and 5% CO2 with 95% humidity. The PDC lines were cultured according to standard operating procedures established by the NCI PDMR (https://pdmr.cancer.gov). Briefly, all PDCs were thawed and cultured in Matrigel-coated flasks prepared with a working solution of 1X Ham's F-12 nutrient mix, without supplementation (Invitrogen, Waltham, MA, cat. 11765054), 100 U/mL penicillin-streptomycin (Invitrogen, cat. 15140122), and 2.5% Matrigel (Corning Inc., Corning, NY, cat. 354248) for the first three passages. All PDCs were cultured in complete DMEM/F-12 media containing advanced DMEM/F-12 (Invitrogen, cat. 12634028), 4.9% defined fetal bovine serum, heat inactivated (HyClone Laboratories Inc., Logan, UT, cat. SH30070.03HI), 389 ng/mL hydrocortisone (Sigma-Aldrich, cat. H4001), 9.7 ng/mL human EGF recombinant protein (Invitrogen, cat. PHG0313), 23.4 microg/mL adenine (Sigma-Aldrich, cat. A2786), 97.3 U/mL penicillin-streptomycin (Invitrogen, cat. 15140122), 1.9 mM L-glutamine (Invitrogen, cat. 25030081), and 9.7 microM Y-27632 dihydrochloride (Tocris Bioscience, Bristol, United Kingdom, cat. 1254). The PDCs were cultured in complete DMEM/F12 media without 10 microM Y-27632 dihydrochloride for at least two passages prior to the screen. The established cell lines NCI-H1341 and […] were cultured in DMEM/F-12, HEPES (Invitrogen, cat. 11330032), 5% defined fetal bovine serum (HyClone Laboratories Inc., cat. SH30070.03), ITS premix universal culture supplement [insulin (5 microg/mL), transferrin (5 microg/mL), and selenious acid (5 ng/mL)] […]", "data": [{"smiles": "O=C(C=Cn1cnc(-c2cc(C(F)(F)F)cc(C(F)(F)F)c2)n1)NNc1cnccn1", "note": "+ Cc1cncc(-c2nc(NCCc3c[nH]c4ccccc34)c3ncn(C(C)C)c3n2)c1", "values": [{"measurement": "IC50", "setting": "second compound 0.1 µM", "result": 116, "unit": "nM"}, {"measurement": "IC50", "setting": "second compound 0.316 µM", "result": 115, "unit": "nM"}, {"measurement": "IC50", "setting": "second compound 1 µM", "result": 99.1, "unit": "nM"}, {"measurement": "IC50", "setting": "second compound 3.16 µM", "result": 24.9, "unit": "nM"}, {"measurement": "IC50", "setting": "second compound 10 µM", "result": "< 9.49", "unit": "nM"}, {"measurement": "viability, T/C", "setting": "second compound 0.1 µM, first compound 0.00949 µM", "result": 87.9, "unit": "%"}, {"measurement": "viability, T/C", "setting": "second compound 0.1 µM, first compound 0.03 µM", "result": 70.4, "unit": "%"}, {"measurement": "viability, T/C", "setting": "second compound 0.1 µM, first compound 0.0949 µM", "result": 49.8, "unit": "%"}, {"measurement": "viability, T/C", "setting": "second compound 0.1 µM, first compound 0.3 µM", "result": 40, "unit": "%"}, {"measurement": "viability, T/C", "setting": "second compound 0.1 µM, first compound 0.949 µM", "result": 37.4, "unit": "%"}, {"measurement": "viability, T/C", "setting": "second compound 0.1 µM, first compound 3 µM", "result": 27.9, "unit": "%"}, {"measurement": "viability, T/C", "setting": "second compound 0.316 µM, first compound 0.00949 µM", "result": 82.4, "unit": "%"}, {"measurement": "viability, T/C", "setting": "second compound 0.316 µM, first compound 0.03 µM", "result": 69.7, "unit": "%"}, {"measurement": "viability, T/C", "setting": "second compound 0.316 µM, first compound 0.0949 µM", "result": 51.8, "unit": "%"}, {"measurement": "viability, T/C", "setting": "second compound 0.316 µM, first compound 0.3 µM", "result": 36.2, "unit": "%"}, {"measurement": "viability, T/C", "setting": "second compound 0.316 µM, first compound 0.949 µM", "result": 37.4, "unit": "%"}, {"measurement": "viability, T/C", "setting": "second compound 0.316 µM, first compound 3 µM", "result": 25, "unit": "%"}, {"measurement": "viability, T/C", "setting": "second compound 1 µM, first compound 0.00949 µM", "result": 82.6, "unit": "%"}, {"measurement": "viability, T/C", "setting": "second compound 1 µM, first compound 0.03 µM", "result": 70.9, "unit": "%"}, {"measurement": "viability, T/C", "setting": "second compound 1 µM, first compound 0.0949 µM", "result": 48.8, "unit": "%"}, {"measurement": "viability, T/C", "setting": "second compound 1 µM, first compound 0.3 µM", "result": 38.2, "unit": "%"}, {"measurement": "viability, T/C", "setting": "second compound 1 µM, first compound 0.949 µM", "result": 29.2, "unit": "%"}, {"measurement": "viability, T/C", "setting": "second compound 1 µM, first compound 3 µM", "result": 27.9, "unit": "%"}, {"measurement": "viability, T/C", "setting": "second compound 3.16 µM, first compound 0.00949 µM", "result": 62.3, "unit": "%"}, {"measurement": "viability, T/C", "setting": "second compound 3.16 µM, first compound 0.03 µM", "result": 47.4, "unit": "%"}, {"measurement": "viability, T/C", "setting": "second compound 3.16 µM, first compound 0.0949 µM", "result": 34.3, "unit": "%"}, {"measurement": "viability, T/C", "setting": "second compound 3.16 µM, first compound 0.3 µM", "result": 26, "unit": "%"}, {"measurement": "viability, T/C", "setting": "second compound 3.16 µM, first compound 0.949 µM", "result": 26.3, "unit": "%"}, {"measurement": "viability, T/C", "setting": "second compound 3.16 µM, first compound 3 µM", "result": 24.9, "unit": "%"}, {"measurement": "viability, T/C", "setting": "second compound 10 µM, first compound 0.00949 µM", "result": 1.57, "unit": "%"}, {"measurement": "viability, T/C", "setting": "second compound 10 µM, first compound 0.03 µM", "result": 1.26, "unit": "%"}, {"measurement": "viability, T/C", "setting": "second compound 10 µM, first compound 0.0949 µM", "result": 1.76, "unit": "%"}, {"measurement": "viability, T/C", "setting": "second compound 10 µM, first compound 0.3 µM", "result": 2.84, "unit": "%"}, {"measurement": "viability, T/C", "setting": "second compound 10 µM, first compound 0.949 µM", "result": 2.94, "unit": "%"}, {"measurement": "viability, T/C", "setting": "second compound 10 µM, first compound 3 µM", "result": 4.72, "unit": "%"}]}, {"smiles": "CC1COCCN1c1cc(C2(S(C)(=N)=O)CC2)nc(-c2ccnc3[nH]ccc23)n1", "note": "(stereo not given) + Cc1cncc(-c2nc(NCCc3c[nH]c4ccccc34)c3ncn(C(C)C)c3n2)c1", "values": [{"measurement": "IC50", "setting": "second compound 0.1 µM", "result": "> 10000", "unit": "nM"}, {"measurement": "IC50", "setting": "second compound 0.316 µM", "result": "> 10000", "unit": "nM"}, {"measurement": "IC50", "setting": "second compound 1 µM", "result": 9330, "unit": "nM"}, {"measurement": "IC50", "setting": "second compound 3.16 µM", "result": "< 31.6", "unit": "nM"}, {"measurement": "IC50", "setting": "second compound 10 µM", "result": "< 31.6", "unit": "nM"}, {"measurement": "viability, T/C", "setting": "second compound 0.1 µM, first compound 0.0316 µM", "result": 107, "unit": "%"}, {"measurement": "viability, T/C", "setting": "second compound 0.1 µM, first compound 0.1 µM", "result": 104, "unit": "%"}, {"measurement": "viability, T/C", "setting": "second compound 0.1 µM, first compound 0.316 µM", "result": 92.5, "unit": "%"}, {"measurement": "viability, T/C", "setting": "second compound 0.1 µM, first compound 1 µM", "result": 96.4, "unit": "%"}, {"measurement": "viability, T/C", "setting": "second compound 0.1 µM, first compound 3.16 µM", "result": 97.2, "unit": "%"}, {"measurement": "viability, T/C", "setting": "second compound 0.1 µM, first compound 10 µM", "result": 59.2, "unit": "%"}, {"measurement": "viability, T/C", "setting": "second compound 0.316 µM, first compound 0.0316 µM", "result": 92.4, "unit": "%"}, {"measurement": "viability, T/C", "setting": "second compound 0.316 µM, first compound 0.1 µM", "result": 110, "unit": "%"}, {"measurement": "viability, T/C", "setting": "second compound 0.316 µM, first compound 0.316 µM", "result": 105, "unit": "%"}, {"measurement": "viability, T/C", "setting": "second compound 0.316 µM, first compound 1 µM", "result": 110, "unit": "%"}, {"measurement": "viability, T/C", "setting": "second compound 0.316 µM, first compound 3.16 µM", "result": 89.7, "unit": "%"}, {"measurement": "viability, T/C", "setting": "second compound 0.316 µM, first compound 10 µM", "result": 54.5, "unit": "%"}, {"measurement": "viability, T/C", "setting": "second compound 1 µM, first compound 0.0316 µM", "result": 107, "unit": "%"}, {"measurement": "viability, T/C", "setting": "second compound 1 µM, first compound 0.1 µM", "result": 91.2, "unit": "%"}, {"measurement": "viability, T/C", "setting": "second compound 1 µM, first compound 0.316 µM", "result": 101, "unit": "%"}, {"measurement": "viability, T/C", "setting": "second compound 1 µM, first compound 1 µM", "result": 94.8, "unit": "%"}, {"measurement": "viability, T/C", "setting": "second compound 1 µM, first compound 3.16 µM", "result": 89.9, "unit": "%"}, {"measurement": "viability, T/C", "setting": "second compound 1 µM, first compound 10 µM", "result": 46.9, "unit": "%"}, {"measurement": "viability, T/C", "setting": "second compound 3.16 µM, first compound 0.0316 µM", "result": 18, "unit": "%"}, {"measurement": "viability, T/C", "setting": "second compound 3.16 µM, first compound 0.1 µM", "result": 18.5, "unit": "%"}, {"measurement": "viability, T/C", "setting": "second compound 3.16 µM, first compound 0.316 µM", "result": 25, "unit": "%"}, {"measurement": "viability, T/C", "setting": "second compound 3.16 µM, first compound 1 µM", "result": 17.1, "unit": "%"}, {"measurement": "viability, T/C", "setting": "second compound 3.16 µM, first compound 3.16 µM", "result": 13.5, "unit": "%"}, {"measurement": "viability, T/C", "setting": "second compound 3.16 µM, first compound 10 µM", "result": 8.17, "unit": "%"}, {"measurement": "viability, T/C", "setting": "second compound 10 µM, first compound 0.0316 µM", "result": 1.76, "unit": "%"}, {"measurement": "viability, T/C", "setting": "second compound 10 µM, first compound 0.1 µM", "result": 1.78, "unit": "%"}, {"measurement": "viability, T/C", "setting": "second compound 10 µM, first compound 0.316 µM", "result": 1.04, "unit": "%"}, {"measurement": "viability, T/C", "setting": "second compound 10 µM, first compound 1 µM", "result": 1.58, "unit": "%"}, {"measurement": "viability, T/C", "setting": "second compound 10 µM, first compound 3.16 µM", "result": 0.93, "unit": "%"}, {"measurement": "viability, T/C", "setting": "second compound 10 µM, first compound 10 µM", "result": 1.14, "unit": "%"}]}]}
